According to patent US20060269605A1, “Multilayer pharmaceutical dosage form containing a substance that acts in a modulatory manner with regard to the release of active substances” (Roehm Gmbh & Co. KG, priority 2003, published 2006):

Assay: active ingredient delivery in PhEur phosphate buffer of pH 6.8 in a USP dissolution tester
Format: physicochemical
Details: modulator as core of theophylline pellets coated with EUDRAGIT RS, no inner controlling layer, versus microcrystalline cellulose core (Example 5)

CC(=O)[O-].[Na+] [sodium acetate]
effect of the substance having a modulating effect on active ingredient delivery: accelerating effect

O=C([O-])CCC(=O)[O-].[Na+].[Na+] [sodium succinate]
effect of the substance having a modulating effect on active ingredient delivery: accelerating effect

[Cl-].[Na+] [sodium chloride]
effect of the substance having a modulating effect on active ingredient delivery: reducing effect

O=C(O)CC(O)(CC(=O)O)C(=O)O [citric acid]
effect of the substance having a modulating effect on active ingredient delivery: accelerating effect
